Results as given in article PMC2359919, “Molecular targeting of retinoic acid metabolism in neuroblastoma: the role of the CYP26 inhibitor R116010 in vitro and in vivo” (British Journal of Cancer, 2007).
Like-named read-outs stand apart in the source and are kept apart here.

Assay: Pharmacokinetic analysis of RA in an SH-SY5Y xenograft model (retinoid concentrations in plasma, liver, tumour by LC/MS)
Format: in vivo, CD-1 nude mice
Details: for % Total retinoids, tumour, 0.5 h / % Total retinoids, tumour, 2 h / % Total retinoids, tumour, 6 h / % Total retinoids, liver, 0.5 h / % Total retinoids, liver, 2 h / % Total retinoids, liver, 6 h / % Total retinoids, plasma, 0.5 h / % Total retinoids, plasma, 2 h / % Total retinoids, plasma, 6 h / concentration at 0.5 h / concentration at 2 h / concentration at 6 h: label = retinoid measured; for concentration at 0.5 h / concentration at 2 h / concentration at 6 h: po
Description: All in vivo experiments were approved by the relevant institutional animal welfare committees, and performed according to national law. Female athymic nude mice (CD-1 nu/nu, Charles River) used for antitumour studies were maintained and handled in isolators, under specific pathogen-free conditions, at 24°C with a 12 h light, 12 h dark cycle. Tumours were generated by implantation of SH-SY5Y cells subcutaneously (s.c.) into one flank of CD-1 nude mice (1 × 10^7 cells per animal).
Treatments began when the tumours were between 7 and 10 mm in length and breadth. Retinoids and R116010 were initially dissolved in DMSO before 10- or 20-fold dilutions in PBS, respectively. For pharmacokinetic studies, the animals were dosed with ATRA or 13cisRA (each 100 mg kg^−1) orally for 0.5, 2 and 6 h. For metabolism studies, animals were treated with R116010 orally at doses of 1.25 or 2.5 mg kg^−1 either immediately before the retinoid being studied, or up to three times (over 1–2 days) before dosing with the retinoid. At termination of experiments, animals were bled under terminal anaesthesia then killed by cervical dislocation. Plasma was immediately removed from the blood by centrifugation at 1000 g for 5 min and snap-frozen in liquid nitrogen in amber Eppendorfs. Tumour and liver samples were removed and snap-frozen, wrapped in foil, in liquid nitrogen.
Cell pellets obtained from retinoid incubations were re-suspended in 2 ml cell culture medium and disrupted by passing the samples several times through a syringe and hypodermic needle (25G × 1 inches, 0.5 mm × 25 mm; Terumo, Somerset, NJ, USA). Tumour and liver tissues were re-suspended in PBS and homogenised (T25 homogeniser, IKA Laboratories, Staufen, Germany). Retinoids were extracted as described previously ([Veal et al, 2002]; [Armstrong et al, 2005b]). Samples were reconstituted in 200 μl mobile phase A (n-hexane:dichloromethane:propan-2-ol, 400 : 1 : 0.27) and analysed by normal-phase HPLC as described previously ([Veal et al, 2002]). For LC/MS analysis, samples were reconstituted in 200 μl mobile phase A (50% acetonitrile, 50% (0.2%) acetic acid, v v^−1).
Resolution of retinoids was performed with a Luna C18(2) column (3 μm, 50 mm × 2 mm) using a Perkin Elmer LC (Beaconsfield, UK) system, consisting of a vacuum degasser, two series 200 pumps, a thermostatically controlled series 200 autosampler and a Waters 2487 UV absorbance detector. Retinoic isomers and metabolites were separated by gradient reversed-phase chromatography. An injection volume of 20 μl with a flow rate of 0.2 ml min^−1 was used with mobile phase A (50% acetonitrile, 50% (0.2%) acetic acid, v v^−1) and mobile phase B (acetonitrile, 0.1% acetic acid, v v^−1). Linear gradients were employed between the specified times as follows: 0, 100% A; 5 min, 100% A; 15 min, 100% B; 20 min, 100% B; 23 min, 100% A; 35 min, 100% A. An Applied Biosystems (Warrington, UK) API-2000 LC/MS/MS triple Q (quadrupole) mass spectrometer with electrospray ionisation source, controlled by Analyst software, was operated in single quadrupole negative mode for the detection of compounds.

[1] = after 13cisRA 100 mg kg^−1 oral, SH-SY5Y tumour
[2] = after 13cisRA 100 mg kg^−1 oral, liver
[3] = after 13cisRA 100 mg kg^−1 oral, plasma
[4] = after ATRA 100 mg kg^−1 oral, SH-SY5Y tumour
[5] = after ATRA 100 mg kg^−1 oral, liver
[6] = after ATRA 100 mg kg^−1 oral, plasma

CC1=C(/C=C/C(C)=C/C=C/C(C)=C/C(=O)O)C(C)(C)CCC1 [ATRA, all-trans-retinoic acid]
Plasma % of total retinoids at all time points (after 13cisRA 100 mg kg^−1, plasma, 0.5, 2 and 6 h): < 10% | % Total retinoids, tumour, 0.5 h [1]: 7% | % Total retinoids, tumour, 2 h [1]: 14% | % Total retinoids, tumour, 6 h [1]: 16% | % Total retinoids, liver, 0.5 h [2]: 2% | % Total retinoids, liver, 2 h [2]: 1% | % Total retinoids, liver, 6 h [2]: <1% | % Total retinoids, plasma, 0.5 h [3]: 5% | % Total retinoids, plasma, 2 h [3]: 3% | % Total retinoids, plasma, 6 h [3]: 1% | Intratumoral % of total retinoids at all time points (after ATRA 100 mg kg^−1, tumour, 0.5, 2 and 6 h): ≥ 80% | % Total retinoids, tumour, 0.5 h [4]: 90% | % Total retinoids, tumour, 2 h [4]: 95% | % Total retinoids, tumour, 6 h [4]: 80% | % Total retinoids, liver, 0.5 h [5]: 77% | % Total retinoids, liver, 2 h [5]: 81% | % Total retinoids, liver, 6 h [5]: 46% | % Total retinoids, plasma, 0.5 h [6]: 91% | % Total retinoids, plasma, 2 h [6]: 88% | % Total retinoids, plasma, 6 h [6]: 70% | concentration at 0.5 h (female, CD-1 nu/nu (athymic nude), mouse, liver, 100 mg kg^−1, after 13cisRA 100 mg kg^−1 oral, liver, read-out: Liver concentration, 0.5 h): 120 ± 80 ng/g | concentration at 2 h (female, CD-1 nu/nu (athymic nude), mouse, liver, 100 mg kg^−1, after 13cisRA 100 mg kg^−1 oral, liver, read-out: Liver concentration, 2 h): 50 ± 50 ng/g | concentration at 6 h (female, CD-1 nu/nu (athymic nude), mouse, liver, 100 mg kg^−1, after 13cisRA 100 mg kg^−1 oral, liver, read-out: Liver concentration, 6 h): 20 ± 20 ng/g | concentration at 0.5 h (female, CD-1 nu/nu (athymic nude), mouse, liver, 100 mg kg^−1, after ATRA 100 mg kg^−1 oral, liver, read-out: Liver concentration, 0.5 h): 3070 ± 1950 ng/g | concentration at 2 h (female, CD-1 nu/nu (athymic nude), mouse, liver, 100 mg kg^−1, after ATRA 100 mg kg^−1 oral, liver, read-out: Liver concentration, 2 h): 6920 ± 1130 ng/g | concentration at 6 h (female, CD-1 nu/nu (athymic nude), mouse, liver, 100 mg kg^−1, after ATRA 100 mg kg^−1 oral, liver, read-out: Liver concentration, 6 h): 2400 ± 360 ng/g | concentration at 0.5 h (female, CD-1 nu/nu (athymic nude), mouse, plasma, 100 mg kg^−1, after 13cisRA 100 mg kg^−1 oral, plasma, read-out: Plasma concentration, 0.5 h): 0.69 ± 0.49 µM | concentration at 2 h (female, CD-1 nu/nu (athymic nude), mouse, plasma, 100 mg kg^−1, after 13cisRA 100 mg kg^−1 oral, plasma, read-out: Plasma concentration, 2 h): 0.57 ± 0.57 µM | concentration at 6 h (female, CD-1 nu/nu (athymic nude), mouse, plasma, 100 mg kg^−1, after 13cisRA 100 mg kg^−1 oral, plasma, read-out: Plasma concentration, 6 h): 0.08 ± 0.08 µM | concentration at 0.5 h (female, CD-1 nu/nu (athymic nude), mouse, plasma, 100 mg kg^−1, after ATRA 100 mg kg^−1 oral, plasma, read-out: Plasma concentration, 0.5 h): 13 ± 10.4 µM | concentration at 2 h (female, CD-1 nu/nu (athymic nude), mouse, plasma, 100 mg kg^−1, after ATRA 100 mg kg^−1 oral, plasma, read-out: Plasma concentration, 2 h): 24.4 ± 1.94 µM | concentration at 6 h (female, CD-1 nu/nu (athymic nude), mouse, plasma, 100 mg kg^−1, after ATRA 100 mg kg^−1 oral, plasma, read-out: Plasma concentration, 6 h): 12.8 ± 4.61 µM | Tmax (female, CD-1 nu/nu (athymic nude), mouse, plasma, 100 mg kg^−1 oral, sampled at 0.5, 2, 6 h, read-out: Time of peak plasma levels): 2 h | concentration at 0.5 h (female, CD-1 nu/nu (athymic nude), mouse, tumour (SH-SY5Y xenograft), 100 mg kg^−1, after 13cisRA 100 mg kg^−1 oral, SH-SY5Y tumour, read-out: Tumour concentration, 0.5 h): 150 ± 90 ng/g | concentration at 2 h (female, CD-1 nu/nu (athymic nude), mouse, tumour (SH-SY5Y xenograft), 100 mg kg^−1, after 13cisRA 100 mg kg^−1 oral, SH-SY5Y tumour, read-out: Tumour concentration, 2 h): 370 ± 160 ng/g | concentration at 6 h (female, CD-1 nu/nu (athymic nude), mouse, tumour (SH-SY5Y xenograft), 100 mg kg^−1, after 13cisRA 100 mg kg^−1 oral, SH-SY5Y tumour, read-out: Tumour concentration, 6 h): 90 ± 20 ng/g | concentration at 0.5 h (female, CD-1 nu/nu (athymic nude), mouse, tumour (SH-SY5Y xenograft), 100 mg kg^−1, after ATRA 100 mg kg^−1 oral, SH-SY5Y tumour, read-out: Tumour concentration, 0.5 h): 2590 ± 2280 ng/g | concentration at 2 h (female, CD-1 nu/nu (athymic nude), mouse, tumour (SH-SY5Y xenograft), 100 mg kg^−1, after ATRA 100 mg kg^−1 oral, SH-SY5Y tumour, read-out: Tumour concentration, 2 h): 9410 ± 2230 ng/g | concentration at 6 h (female, CD-1 nu/nu (athymic nude), mouse, tumour (SH-SY5Y xenograft), 100 mg kg^−1, after ATRA 100 mg kg^−1 oral, SH-SY5Y tumour, read-out: Tumour concentration, 6 h): 3780 ± 590 ng/g
